Earlier results on 1 compound are cited in US20050244491A1, “Fast disintegrating meloxicam tablet” (Boehringer Ingelheim International GmbH, priority 2001, published 2005).

The conditions of the data set: in acidic or neutral medium.

Consider `Cc1cnc(NC(=O)C2=C(O)c3ccccc3S(=O)(=O)N2C)s1` [Meloxicam, 2H-1,2-benzothiazine-3-carboxamide, 4-hydroxy-2-methyl-N-(5-methyl-2-thiazolyl)-1,1-dioxide], for which the solubility entry is recorded as “low”.
